From US11292807B2 (OCEANS LTD., priority 2015, dated 2022)
Like-named read-outs stand apart in the source and are kept apart here.

Legend:
MDA-MB [1] = details: MDA-MB
MDA-MB [2] = assay: cells; details: Homo sapiens, read-out: Average cell viability, MDA-MB
PC3 = assay: CIMA assay, cell viability, PC3; details: for Fold change in viability AVG / In vitro activity against cancer cell lines, PC3 AVG: PC3
[3] = system: U373 (glioblastoma-astrocytoma); assay: CIMA assay, cell viability, U373; details: for Fold change in viability AVG / In vitro activity against cancer cell lines, U373 AVG: U373
Experimental: (§1) Stock solutions of the extracts were prepared in dimethylsulfoxide (DMSO) at 10 mg/mL and stored in 200 μl aliquots at −20° C. until analysis. This preparation ensured that the DMSO delivered to cells in culture never exceeded 1%.
(§2) Prepared extracts were assessed following chronic exposure conditions in which cells were seeded at 2×10^3 cells/well (96 well-plate) and incubated with test compounds for 72 h. Each compound was evaluated over a range of concentrations (0, 10, 25, 50 or 100 μg/ml). Cell proliferation was initially assessed using a standard colorimetric indicator of metabolic activity (CIMA) assay. In this assay, tetrazole reduction was evaluated as a measure of metabolic function that evaluates mitochondrial activity to determine the extent of cell proliferation within a culture. This assay is based on the reduction of yellow tetrazolium salt to purple formazan by mitochondrial reductases enzyme in viable cells, resulting in a color changed that confers a change in absorbance.

[4] = system: SKOV3 (ovarian adenocarcinoma); assay: CIMA assay, cell viability, SKOV3; details: for Fold change in viability AVG / In vitro activity against cancer cell lines, SKOV AVG: SKOV
[5] = system: THP-1 (acute monocytic leukemia); assay: CIMA assay, cell viability, THP-1; details: for Fold change in viability AVG / In vitro activity against cancer cell lines, THP-1 AVG: THP-1
[6] = CIMA assay, cell viability, CCD1079SK; details: human, Average cell viability, CCD
[7] = system: CCD1079SK (fibroblast, noncancerous but proliferating); assay: CIMA assay, cell viability, CCD1079SK; details: CCD
A549 (lung carcinoma) = assay: CIMA assay (colorimetric indicator of metabolic activity), cell viability, A549; details: for Fold change in viability AVG / In vitro activity against cancer cell lines, A549 AVG: A549
Experimental: as §1, §2

CCCCCCCCCCCCCCCC(=O)OCC(COC1OC(CO)C(O)C(O)C1O)OC(=O)CCCCCCCCCCCCC (centres unmarked) [Compound 16, MGDG C16:0/C14:0]
Fold change in viability AVG (MDA-MB [1]; 1 ug/mL): 1.08 | In vitro activity against cancer cell lines, MDA-MB AVG (MDA-MB [1]; 1 ug/mL): 1.08 | Fold change in viability AVG (MDA-MB [1]; 10 ug/mL): 1.09 | In vitro activity against cancer cell lines, MDA-MB AVG (MDA-MB [1]; 10 ug/mL): 1.09 | Fold change in viability AVG (MDA-MB [1]; 50 ug/mL): 0.76 | In vitro activity against cancer cell lines, MDA-MB AVG (MDA-MB [1]; 50 ug/mL): 0.76 | Fold change in viability AVG (MDA-MB [1]; 100 ug/mL): 0.21 | In vitro activity against cancer cell lines, MDA-MB AVG (MDA-MB [1]; 100 ug/mL): 0.21 | viability at 1 µg/mL (MDA-MB [2]; 1 ug/mL): 99% | viability at 10 µg/mL (MDA-MB [2]; 10 ug/mL): 101% | viability at 50 µg/mL (MDA-MB [2]; 50 ug/mL): 70% | viability at 100 µg/mL (MDA-MB [2]; 100 ug/mL): 20% | viability at 1 µg/mL (PC3; Homo sapiens, PC-3, read-out: Average cell viability, PC3, 1 ug/mL): 100% | viability at 10 µg/mL (PC3; Homo sapiens, PC-3, read-out: Average cell viability, PC3, 10 ug/mL): 96% | viability at 50 µg/mL (PC3; Homo sapiens, PC-3, read-out: Average cell viability, PC3, 50 ug/mL): 72% | viability at 100 µg/mL (PC3; Homo sapiens, PC-3, read-out: Average cell viability, PC3, 100 ug/mL): 9% | Fold change in viability AVG (PC3; 1 ug/mL): 1.04 | In vitro activity against cancer cell lines, PC3 AVG (PC3; 1 ug/mL): 1.04 | Fold change in viability AVG (PC3; 10 ug/mL): 0.99 | In vitro activity against cancer cell lines, PC3 AVG (PC3; 10 ug/mL): 0.99 | Fold change in viability AVG (PC3; 50 ug/mL): 0.75 | In vitro activity against cancer cell lines, PC3 AVG (PC3; 50 ug/mL): 0.75 | Fold change in viability AVG (PC3; 100 ug/mL): 0.10 | In vitro activity against cancer cell lines, PC3 AVG (PC3; 100 ug/mL): 0.10 | viability at 1 µg/mL ([3]; Homo sapiens, U373 MG, read-out: Average cell viability, U373, 1 ug/mL): 108% | viability at 10 µg/mL ([3]; Homo sapiens, U373 MG, read-out: Average cell viability, U373, 10 ug/mL): 95% | viability at 50 µg/mL ([3]; Homo sapiens, U373 MG, read-out: Average cell viability, U373, 50 ug/mL): 48% | viability at 100 µg/mL ([3]; Homo sapiens, U373 MG, read-out: Average cell viability, U373, 100 ug/mL): 9% | Fold change in viability AVG ([3]; 1 ug/mL): 1.09 | In vitro activity against cancer cell lines, U373 AVG ([3]; 1 ug/mL): 1.09 | Fold change in viability AVG ([3]; 10 ug/mL): 0.97 | In vitro activity against cancer cell lines, U373 AVG ([3]; 10 ug/mL): 0.97 | Fold change in viability AVG ([3]; 50 ug/mL): 0.49 | In vitro activity against cancer cell lines, U373 AVG ([3]; 50 ug/mL): 0.49 | Fold change in viability AVG ([3]; 100 ug/mL): 0.09 | In vitro activity against cancer cell lines, U373 AVG ([3]; 100 ug/mL): 0.09 | viability at 1 µg/mL ([4]; Homo sapiens, SK-OV-3, read-out: Average cell viability, SKOV, 1 ug/mL): 102% | viability at 10 µg/mL ([4]; Homo sapiens, SK-OV-3, read-out: Average cell viability, SKOV, 10 ug/mL): 95% | viability at 50 µg/mL ([4]; Homo sapiens, SK-OV-3, read-out: Average cell viability, SKOV, 50 ug/mL): 83% | viability at 100 µg/mL ([4]; Homo sapiens, SK-OV-3, read-out: Average cell viability, SKOV, 100 ug/mL): 68% | Fold change in viability AVG ([4]; 1 ug/mL): 1.09 | In vitro activity against cancer cell lines, SKOV AVG ([4]; 1 ug/mL): 1.09 | Fold change in viability AVG ([4]; 10 ug/mL): 1.02 | In vitro activity against cancer cell lines, SKOV AVG ([4]; 10 ug/mL): 1.02 | Fold change in viability AVG ([4]; 50 ug/mL): 0.90 | In vitro activity against cancer cell lines, SKOV AVG ([4]; 50 ug/mL): 0.90 | Fold change in viability AVG ([4]; 100 ug/mL): 0.74 | In vitro activity against cancer cell lines, SKOV AVG ([4]; 100 ug/mL): 0.74 | viability at 1 µg/mL ([5]; Homo sapiens, THP-1, read-out: Average cell viability, THP-1, 1 ug/mL): 101% | viability at 10 µg/mL ([5]; Homo sapiens, THP-1, read-out: Average cell viability, THP-1, 10 ug/mL): 101% | viability at 50 µg/mL ([5]; Homo sapiens, THP-1, read-out: Average cell viability, THP-1, 50 ug/mL): 86% | viability at 100 µg/mL ([5]; Homo sapiens, THP-1, read-out: Average cell viability, THP-1, 100 ug/mL): 46% | Fold change in viability AVG ([5]; 1 ug/mL): 1.14 | In vitro activity against cancer cell lines, THP-1 AVG ([5]; 1 ug/mL): 1.14 | Fold change in viability AVG ([5]; 10 ug/mL): 1.15 | In vitro activity against cancer cell lines, THP-1 AVG ([5]; 10 ug/mL): 1.15 | Fold change in viability AVG ([5]; 50 ug/mL): 0.75 | In vitro activity against cancer cell lines, THP-1 AVG ([5]; 50 ug/mL): 0.75 | Fold change in viability AVG ([5]; 100 ug/mL): 0.52 | In vitro activity against cancer cell lines, THP-1 AVG ([5]; 100 ug/mL): 0.52 | viability at 72 h, 1 ug/mL ([6]; CCD1079SK fibroblast cells (noncancerous, proliferating), 1 ug/mL): 106% | viability at 72 h, 10 ug/mL ([6]; CCD1079SK fibroblast cells (noncancerous, proliferating), 10 ug/mL): 98% | viability at 72 h, 50 ug/mL ([6]; CCD1079SK fibroblasts (noncancerous, proliferating), 50 ug/mL): 44% | viability at 72 h, 100 ug/mL ([6]; CCD1079SK fibroblasts (noncancerous, proliferating), 100 ug/mL): 19% | Fold change in viability AVG ([7]; 1 ug/mL): 1.16 | Fold change in viability AVG ([7]; 10 ug/mL): 1.08 | Fold change in viability AVG ([7]; 50 ug/mL): 0.48 | Fold change in viability AVG ([7]; 100 ug/mL): 0.21 | Fold change in viability AVG (A549 (lung carcinoma); 1 ug/mL): 1.13 | In vitro activity against cancer cell lines, A549 AVG (A549 (lung carcinoma); 1 ug/mL): 1.13 | Fold change in viability AVG (A549 (lung carcinoma); 10 ug/mL): 1.16 | In vitro activity against cancer cell lines, A549 AVG (A549 (lung carcinoma); 10 ug/mL): 1.16 | Fold change in viability AVG (A549 (lung carcinoma); 50 ug/mL): 0.99 | In vitro activity against cancer cell lines, A549 AVG (A549 (lung carcinoma); 50 ug/mL): 0.99 | Fold change in viability AVG (A549 (lung carcinoma); 100 ug/mL): 0.60 | In vitro activity against cancer cell lines, A549 AVG (A549 (lung carcinoma); 100 ug/mL): 0.60 | viability at 1 µg/mL (A549 (lung carcinoma); Homo sapiens, A549, read-out: Average cell viability, A549, 1 ug/mL): 97% | viability at 10 µg/mL (A549 (lung carcinoma); Homo sapiens, A549, read-out: Average cell viability, A549, 10 ug/mL): 99% | viability at 50 µg/mL (A549 (lung carcinoma); Homo sapiens, A549, read-out: Average cell viability, A549, 50 ug/mL): 85% | viability at 100 µg/mL (A549 (lung carcinoma); Homo sapiens, A549, read-out: Average cell viability, A549, 100 ug/mL): 52%
